This assay has as its system C6/36 Aedes albopictus cell line infected with Wolbachia pipientis (Wolbachia strain wAlbB). As to the kind of experiment: In vitro insect cell line assay (anti-Wolbachia screen, SYTO 11 high content imaging). Format: cell-based. Particulars: 168 h; C6/36 Aedes albopictus cells infected with Wolbachia pipientis wAlbB, 7 days incubation, SYTO 11 imaging; read-out: In vitro anti-Wolbachia activity. An outline of the steps:
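SYTO 11 staining (15 min), high-content imaging and texture analysis were the read-out on day 7. Before that, C6/36 mosquito cells carrying Wolbachia strain wAlbB were incubated at 26 °C with test compound at 5 μM final, alongside DMSO-only control wells.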

For `FC(F)(F)c1ccccc1CNc1nc(NC2COC2)nc2ncccc12` [Example 144, N^2-(oxetan-3-yl)-N^4-(2-(trifluoromethyl)benzyl)pyrido[2,3-d]pyrimidine-2,4-diamine], the EC50 was in the range of 10 to 100 nM.

As for `FC(F)(F)c1ncccc1CNc1nc(N2CCOC(C3CC3)C2)nc2ncccc12` (centres unmarked) [Example 278, 2-(2-cyclopropylmorpholino)-N-((2-(trifluoromethyl)pyridin-3-yl)methyl)pyrido[2,3-d]pyrimidin-4-amine], the EC50 is 0.01 to 1 nM.

Take `CC(C)Nc1nc(NCc2ccccc2C(F)(F)F)c2ccccc2n1` [Example 58, N^2-isopropyl-N^4-(2-(trifluoromethyl)benzyl)quinazoline-2,4-diamine]: the EC50 was in the range of 100 to 1000 nM.

For the compound `N#CC1CCCN1c1nc(NCc2cccnc2C(F)(F)F)c2cccnc2n1` (centres unmarked) [Example 238, 1-(4-(((2-(trifluoromethyl)pyridin-3-yl)methyl)amino)pyrido[2,3-d]pyrimidin-2-yl)pyrrolidine-2-carbonitrile], the EC50 is 10 to 100 nM.

`CC(C)(C)Nc1nc(NCc2ccccc2C(F)(F)F)c2sccc2n1` [Example 41, N^2-(tert-butyl)-N^4-(2-(trifluoromethyl)benzyl)thieno[3,2-d]pyrimidine-2,4-diamine]: the EC50 is 10 to 100 nM.

As to `CC1COC[C@@H](C)N1c1nc(NCc2cccnc2C(F)(F)F)c2cccnc2n1` (stereo partly drawn) [Example 275, 2-((3R)-3,5-dimethylmorpholino)-N-((2-(trifluoromethyl)pyridin-3-yl)methyl)pyrido[2,3-d]pyrimidin-4-amine], the EC50 fell in the range of 0.01 to 1 nM.

`FC(F)(F)c1cccc2c1CN(c1ncnc3ccsc13)C2` [Example 83]: the EC50 was 1000 to 100000 nM.

In the case of `FC(F)(F)c1ncccc1CNc1nc(NC2COC2)nc2ncccc12` [Example 158, N^2-(oxetan-3-yl)-N^4-((2-(trifluoromethyl)pyridin-3-yl)methyl)pyrido[2,3-d]pyrimidine-2,4-diamine], the EC50 is 100 to 1000 nM.

In the case of `CS(=O)(=O)C1CCN(c2nc(NCc3cccnc3C(F)(F)F)c3cccnc3n2)C1` (centres unmarked) [Example 263, 2-(3-(methylsulfonyl)pyrrolidin-1-yl)-N-((2-(trifluoromethyl)pyridin-3-yl)methyl)pyrido[2,3-d]pyrimidin-4-amine], the EC50 is 100 to 1000 nM.

With `CC(C)Nc1nc(NCc2cccnc2C(F)(F)F)c2cccnc2n1` [Example 150, N^2-isopropyl-N^4-((2-(trifluoromethyl)pyridin-3-yl)methyl)pyrido[2,3-d]pyrimidine-2,4-diamine], the EC50 was in the range of 10 to 100 nM.

On to `CC(C)Nc1nc(NCc2c(F)cccc2C(F)(F)F)c2cccnc2n1` [Example 166, N^4-(2-fluoro-6-(trifluoromethyl)benzyl)-N^2-isopropylpyrido[2,3-d]pyrimidine-2,4-diamine], for which the EC50 fell in the range of 100 to 1000 nM.

With `FC(F)(F)c1ncccc1CNc1nc(N2CCOC3(CC3)C2)nc2ncccc12` [Example 256, 2-(4-oxa-7-azaspiro[2.5]octan-7-yl)-N-((2-(trifluoromethyl)pyridin-3-yl)methyl)pyrido[2,3-d]pyrimidin-4-amine], the EC50 was less than 0.01 nM.

As for `FC(F)(F)c1ccccc1CNc1nc(CN2CC(C(F)(F)F)C2)nc2ncccc12` [Example 226], the EC50 lay in the range of 100 to 1000 nM.

Turning to `Cc1nc(N(C)C(C)c2ccccc2C(F)(F)F)c2sc(C)cc2n1` (centres unmarked) [Example 69, N,2,6-trimethyl-N-(1-(2-(trifluoromethyl)phenyl)ethyl)thieno[3,2-d]pyrimidin-4-amine], the EC50 lay within 1000 to 100000 nM.

In the case of `FC(F)(F)c1ccncc1CNc1ncnc2ccsc12` [Example 82], the EC50 lay in the range of 1000 to 100000 nM.

On to `O=C(Nc1ncnc2ccsc12)c1ccccc1C(F)(F)F` [Example 37, N-(thieno[3,2-d]pyrimidin-4-yl)-2-(trifluoromethyl)benzamide], for which the EC50 was in the range of 1000 to 100000 nM.

For the compound `N#Cc1ccccc1CNc1nc(Cl)nc2ccsc12` [Example 104, 2-(((2-chlorothieno[3,2-d]pyrimidin-4-yl)amino)methyl)benzonitrile], the EC50 fell in the range of 100 to 1000 nM.

Take `FC1CCN(c2nc(NCc3cccnc3C(F)(F)F)c3cccnc3n2)C1` (centres unmarked) [Example 242, 2-(3-fluoropyrrolidin-1-yl)-N-((2-(trifluoromethyl)pyridin-3-yl)methyl)pyrido[2,3-a]pyrimidin-4-amine]: the EC50 lay in the range of 1 to 10 nM.

Take `CN(Cc1ccccc1C(F)(F)F)c1nc(C(F)(F)F)nc2ccsc12` [Example 62, N-methyl-2-(trifluoromethyl)-N-(2-(trifluoromethyl)benzyl)thieno[3,2-d]pyrimidin-4-amine]: the EC50 was 10 to 100 nM.

Consider `CC1(C)CN(c2nc(NCc3ccccc3C(F)(F)F)c3cccnc3n2)CCO1` [Example 247, 2-(2,2-dimethylmorpholino)-N-(2-(trifluoromethyl)benzyl)pyrido[2,3-d]pyrimidin-4-amine], for which the EC50 was less than 0.01 nM.

For the compound `CC(C)Nc1nc(N(C)Cc2ccccc2C(F)(F)F)c2sccc2n1` [Example 50, N^2-isopropyl-N^4-methyl-N^4-(2-(trifluoromethyl)benzyl)thieno[3,2-d]pyrimidine-2,4-diamine], the EC50 lay within 10 to 100 nM.

As to `COc1cc2c(NCc3cccnc3C(F)(F)F)nc(N3CCOCC3C)nc2nc1OC` (centres unmarked) [Example 308, 6,7-dimethoxy-2-(3-methylmorphoIino)-N-((2-(trifluoromethyl)pyridin-3-yl)methyl)pyrido[2,3-d]pyrimidin-4-amine], the EC50 is 1000 to 100000 nM.

Take `C[C@H]1CN(c2nc(NCc3cccnc3C(F)(F)F)c3cccnc3n2)[C@@H](C)CO1` [Example 279, 2-((2S,5S)-2,5-dimethylmorpholino)-N-((2-(trifluoromethyl)pyridin-3-yl)methyl)pyrido[2,3-d]pyrimidin-4-amine]: the EC50 is 0.01 to 1 nM.

For `FC(F)(F)c1ncccc1CNc1nc(N2CCC(Cl)CC2)nc2ncccc12` [Example 199, 2-(4-chloropiperidin-1-yl)-N-((2-(trifluoromethyl)pyridin-3-yl)methyl)pyrido[2,3-d]pyrimidin-4-amine], the EC50 was in the range of 1 to 10 nM.

Turning to `CC(Nc1nc(Cl)nc2ccsc12)c1ccccc1C(F)(F)F` (centres unmarked) [Example 52, 2-chloro-N-(1-(2-(trifluoromethyl)phenyl)ethyl)thieno[3,2-d]pyrimidin-4-amine], the EC50 was in the range of 10 to 100 nM.

Take `FC(F)(F)c1ncccc1CNc1nc(N2CCCCC23CC3)nc2ncccc12` [Example 296, 2-(4-azaspiro[2.5]octan-4-yl)-N-((2-(trifluoromethyl)pyridin-3-yl)methyl)pyrido[2,3-d]pyrimidin-4-amine]: the EC50 is less than 0.01 nM.

With `CC(C)Nc1nc(N(C)Cc2cccnc2C(F)(F)F)c2cccnc2n1` [Example 160, N^2-isopropyl-N^4-methyl-N4-((2-(trifluoromethyl)pyridin-3-yl)methyl)pyrido[2,3-d]pyrimidine-2,4-diamine], the EC50 was 10 to 100 nM.

With `CC1COCCN1Cc1nc(NCc2cccnc2C(F)(F)F)c2cccnc2n1` (centres unmarked) [Example 229, 2-((3-methylmorpholino)methyl)-N-((2-(trifluoromethyl)pyridin-3-yl)methyl)pyrido[2,3-d]pyrimidin-4-amine], the EC50 lay within 1000 to 100000 nM.

Turning to `Cc1nc(NC(C)c2ccccc2C(F)(F)F)c2sccc2n1` (centres unmarked) [Example 65, 2-methyl-N-(1-(2-(trifluoromethyl)phenyl)ethyl)thieno[3,2-d]pyrimidin-4-amine], the EC50 lay within 10 to 100 nM.

Consider `CC(C)Nc1nc(NCc2ccccc2Cl)c2sccc2n1` [Example 17, N^4-(2-chlorobenzyl)-N^2-isopropylthieno[3,2-d]pyrimidine-2,4-diamine], for which the EC50 is 10 to 100 nM.

As for `FC(F)(F)c1ncccc1C1CCN1c1nc(N2CCC(Cl)CC2)nc2ncccc12` (centres unmarked) [Example 217, 2-(4-chloropiperidin-1-yl)-4-(2-(2-(trifluoromethyl)pyridin-3-yl)azetidin-1-yl)pyrido[2,3-d]pyrimidine], the EC50 is less than 0.01 nM.

For the compound `FC(F)(F)c1cccc(CNc2ncnc3ccsc23)c1` [Example 81], the EC50 was 1000 to 100000 nM.

Consider `COc1cccc(CNc2nc(NC(C)C)nc3ccsc23)c1F` [Example 26, N^4-(2-fluoro-3-methoxybenzyl)-N^2-isopropylthieno[3,2-d]pyrimidine-2,4-diamine], for which the EC50 was in the range of 100 to 1000 nM.

`CC1(C)COCCN1c1nc(NCc2cccnc2C(F)(F)F)c2cccnc2n1` [Example 240, 2-(3,3-dimethylmorpholino)-N-((2-(trifluoromethyl)pyridin-3-yl)methyl)pyrido[2,3-d]pyrimidin-4-amine]: the EC50 was 0.01 to 1 nM.

`Clc1nc(NCc2ccccc2Cl)c2sccc2n1` [Example 21, 2-chloro-N-(2-chlorobenzyl)thieno[3,2-d]pyrimidin-4-amine]: the EC50 is 10 to 100 nM.

With `CC(O)c1nc(NCc2ccccc2C(F)(F)F)c2sccc2n1` (centres unmarked) [Example 84], the EC50 lay within 1000 to 100000 nM.

With `O=C1CCCN1CCCNc1ncnc2ccsc12` [Example 34, 1-(3-(thieno[3,2-d]pyrimidin-4-ylamino)propyl)pyrrolidin-2-one], the EC50 is 1000 to 100000 nM.

As for `FC(F)(F)c1ncccc1CNc1nc(N2CC3CC(C2)O3)nc2ncccc12` [Example 293, 2-(6-oxa-3-azabicyclo[3.1.1]heptan-3-yl)-N-((2-(trifluoromethyl)pyridin-3-yl)methyl)pyrido[2,3-d]pyrimidin-4-amine], the EC50 lay in the range of 1 to 10 nM.

For the compound `FC(F)(F)c1ncccc1CNc1nc(N2CCC(C(F)(F)F)C2)nc2ncccc12` (centres unmarked) [Example 236, N-((2-(trifluoromethyl)pyridin-3-yl)methyl)-2-(3-(trifluoromethyl)pyrrolidin-1-yl)pyrido[2,3-d]pyrimidin-4-amine], the EC50 is less than 0.01 nM.

Take `FC(F)(F)c1ccccc1C1CCN1c1nc(N2CCC(Cl)CC2)nc2ncccc12` (centres unmarked) [Example 212, 2-(4-chloropiperidin-1-yl)-4-(2-(2-(trifluoromethyl)phenyl)azetidin-1-yl)pyrido[2,3-d]pyrimidine]: the EC50 fell in the range of 100 to 1000 nM.

As for `N#CC1CCCN(c2nc(NCc3cccnc3C(F)(F)F)c3cccnc3n2)C1` (centres unmarked) [Example 251], the EC50 fell in the range of 1 to 10 nM.

(Values after US11518760B2 (Liverpool School of Tropical Medicine, priority 2017, dated 2022).)
